Series [1] deals with Cell membrane. Nature of the series: Induction of cell membrane integrity disruption in Candida albicans ATCC SC5314 assessed as decrease in cell wall thickness at 1 microM/ml incubated for 48 to 72 hrs by TEM analysis. As to conditions: time 48-72 hrs. Type of series: subcellular.
For series [2], the system named is Cell membrane. Nature of the series: Induction of cell membrane integrity disruption in Candida albicans ATCC SC5314 assessed as accumulation of low density particulate matter at 1 microM/ml incubated for 48 to 72 hrs by TEM analysis. The format is subcellular. As to conditions: time 48-72 hrs.
Series [3] concerns Cell membrane. Nature of the series: Induction of cell membrane integrity disruption in Candida albicans ATCC SC5314 assessed as disappearance of nuclei at 1 microM/ml incubated for 48 to 72 hrs by TEM analysis. Type of series: subcellular. The note with it: time 48-72 hrs.
The test system of series [4] is Cell membrane. Nature of the series: Induction of cell membrane integrity disruption in Candida albicans ATCC SC5314 assessed as decrease in cell membrane thickness at 1 microM/ml incubated for 48 to 72 hrs by TEM analysis. The format is subcellular. As to conditions: time 48-72 hrs.
Series [5] relates to Cell membrane. The series is described as follows: Induction of cell membrane integrity disruption in Candida albicans ATCC SC5314 assessed as seepage of cell contents into external region at 1 microM/ml incubated for 96 hrs by TEM analysis. The format is subcellular.
Series [6] can be described thus: Toxicity in BALB/c mouse infected with Candida albicans ATCC SC5314 assessed as plasma ALT level at 10 ug, ip for 14 days in presence of Biphenyl isopropyl ester. The note with it: in vivo, 336 h, dose 10 µg, time 14 day. Type of series: organism-based.
Series [7] relates to Candida albicans. Nature of the series: In vivo antifungal activity against Candida albicans ATCC SC5314 infected in BALB/c mouse assessed as fold increase in CD3+ expression level in T cells at 10 ug, ip for 14 days in presence of Biphenyl isopropyl ester by immunohistochemical analysis. The format is functional, T-cell. The note with it: dose 10 µg, time 14 day.
The nature of series [8]: Toxicity in BALB/c mouse infected with Candida albicans ATCC SC5314 assessed as plasma AST level at 10 ug, ip for 14 days in presence of Biphenyl isopropyl ester. Type of series: organism-based. As to conditions: in vivo, 336 h, dose 10 µg, time 14 day.
A short description of series [9]: Toxicity in BALB/c mouse infected with Candida albicans ATCC SC5314 assessed as morphological changes in lung at 10 ug, ip for 14 days in presence of Biphenyl isopropyl ester by H and E staining based microscopy. The note with it: in vivo, 336 h, dose 10 µg, time 14 day. Type of series: organism-based.
Series [10] is described as follows: Toxicity in BALB/c mouse infected with Candida albicans ATCC SC5314 assessed as morphological changes in heart at 10 ug, ip for 14 days in presence of Biphenyl isopropyl ester by H and E staining based microscopy. As to conditions: in vivo, 336 h, dose 10 µg, time 14 day. The format is organism-based.
The subject of series [11] is Candida albicans. Nature of the series: In vivo antifungal activity against Candida albicans ATCC SC5314 infected in BALB/c mouse assessed as decrease in IL-2 expression level at 10 ug, ip for 14 days in presence of Biphenyl isopropyl ester by immunohistochemical analysis. The format is functional, organism-based. The note with it: dose 10.0 µg, time 14.0 day.
Series [12] has as its system Candida albicans. The series is described as follows: In vivo antifungal activity against Candida albicans ATCC SC5314 infected in BALB/c mouse assessed as decrease in COX2 expression level at 10 ug, ip for 14 days in presence of Biphenyl isopropyl ester by immunohistochemical analysis. Type of series: functional, organism-based. As to conditions: dose 10.0 µg, time 14.0 day.

Series [13] relates to Candida albicans. The series is described as follows: In vivo antifungal activity against Candida albicans ATCC SC5314 infected in BALB/c mouse assessed as increase in body weight at 10 ug, ip for 14 days in presence of Biphenyl isopropyl ester. The format is functional, organism-based. As to conditions: dose 10.0 µg, time 14.0 day.
Series [14] is described as follows: Toxicity in BALB/c mouse infected with Candida albicans ATCC SC5314 assessed as morphological changes in liver at 10 ug, ip for 14 days in presence of Biphenyl isopropyl ester by H and E staining based microscopy. Type of series: organism-based. As to conditions: in vivo, 336 h, dose 10 µg, time 14 day.
Series [15] deals with Candida albicans. Nature of the series: In vivo antifungal activity against Candida albicans ATCC SC5314 infected in BALB/c mouse assessed as shrinkage in infected region at 10 ug, ip for 14 days in presence of Biphenyl isopropyl ester. The format is functional, organism-based. The note with it: dose 10.0 µg, time 14.0 day.
Series [16] has as its system Candida albicans. The series is described as follows: In vivo antifungal activity against Candida albicans ATCC SC5314 infected in BALB/c mouse assessed as decrease in NLRP3 expression level at 10 ug, ip for 14 days in presence of Biphenyl isopropyl ester by Western blot analysis. The format is functional, organism-based. As to conditions: dose 10.0 µg, time 14.0 day. A general note: A western blot detects proteins with antibodies after separation by electrophoresis.

For series [17], the system named is Candida albicans. Nature of the series: In vivo antifungal activity against Candida albicans ATCC SC5314 infected in BALB/c mouse assessed as disappearance of nuclei aggregation at 10 ug, ip for 14 days in presence of Biphenyl isopropyl ester by GMS staining based microscopy. Type of series: functional, organism-based. As to conditions: dose 10.0 µg, time 14.0 day.

Series [18] has as its system Candida albicans. The series is described as follows: In vivo antifungal activity against Candida albicans ATCC SC5314 infected in BALB/c mouse assessed as decrease in IFN-gamma expression level at 10 ug, ip for 14 days in presence of Biphenyl isopropyl ester by immunohistochemical analysis. Type of series: functional, organism-based. As to conditions: dose 10.0 µg, time 14.0 day.

Series [19] has as its system Candida albicans. The series is described as follows: In vivo antifungal activity against Candida albicans ATCC SC5314 infected in BALB/c mouse assessed as decrease in IFN-gamma expression level at 10 ug, ip for 14 days in presence of Biphenyl isopropyl ester by Western blot analysis. Type of series: functional, organism-based. As to conditions: dose 10.0 µg, time 14.0 day.

For series [20], the system named is Candida albicans. Nature of the series: In vivo antifungal activity against Candida albicans ATCC SC5314 infected in BALB/c mouse assessed as fold increase in CD8+ expression level in T cells at 10 ug, ip for 14 days in presence of Biphenyl isopropyl ester by immunohistochemical analysis. The format is functional, T-cell. As to conditions: dose 10 µg, time 14 day.

SMILES strings stand for the structures. Calls of active or inactive are those of the source. The rule behind the calls is not given here.

For `CC(=O)c1ccc(C(=O)N2CCC(NC(=O)c3nc(-n4cncn4)c4ccccc4n3)CC2)cc1`, the outcome with Cell membrane [1], in the series with Cell membrane [2], with Cell membrane [3], with Cell membrane [4] and in the series with Cell membrane [5] was Active.

With `OC(Cn1cncn1)(Cn1cncn1)c1ccc(F)cc1F` [FLUCONAZOLE], the Activity in series [6] is listed as 37.2 IU/L; in [8], 71.9 IU/L; in [9], “Non-Toxic”; in [10] it was “Non-Toxic”; in [14], “Non-Toxic”. In addition, the “fold change (FC)” value in the series with Candida albicans [7] and in the series on Candida albicans [20] was 1.46 in each case. The result with Candida albicans [11], in the series with Candida albicans [12], with Candida albicans [13], in the series with Candida albicans [15], in the series with Candida albicans [16] and with Candida albicans [17] was Active. Also, the outcome with Candida albicans [18] and in the series with Candida albicans [19] was Active.
